Where two headings read alike, the source gives them in different places.
System: PD-1/PD-L1 interaction
Test: Cell based PD-1/PD-L1 NFAT reporter assay
Set-up: species or system human
Conditions: Homo sapiens, PD-1/NFAT-Reporter-Jurkat cells co-cultured with TCR activator/PD-L1-CHO cells, 6 hour incubation, luciferase, calibrated to Atezolizumab 10 nM, read-out: Absolute EC50
Procedure: Cell Based PD-1/PD-L1 NFAT Reporter Assay
Compounds of the present patent were tested in a cell based PD-1/PD-L1 NFAT reporter assay.
The cell-based luciferase reporter assay is used for monitoring the PD-1/PD-L1 inhibitor by characterizing the biological activity of PD-1: PD-L1 interactions in cellular context. PD-1/NFAT-Reporter-Jurkat cells stably over-expressing human PD-1 with NFAT reporter are used as effector cells. TCR activator/PD-L1—CHO cells over-expressing PD-L1 and an engineered T cell receptor (TCR) activator are used as target cells. When these two cells are co-cultivated, TCR complexes on effector cells are activated by TCR activator on target cells, resulting in expression of the NFAT luciferase reporter. However, PD1 and PD-L1 (or PD-L2) ligation prevents TCR activation and suppresses the NFAT-responsive luciferase activity. This inhibition can be specifically reversed by anti-PD1 or anti-PD-L1 inhibitors. PD1/PD-L1 inhibitors block PD1:PD-L1 interaction and promote TCR activation, resulting in reactivation of the NFAT responsive luciferase reporter.
PD-1/NFAT—Reporter—Jurkat cell (Cat: 60535) and TCR activator/PD-L1—CHO cell (Cat: 60536) were purchased from BPS Bioscience. Anti-human PD-L1 antibody (Atezolizumab, Cat: A2004) was purchased from Selleck; luciferase reporter gene expression detection kit (ONE-Glo™ Luciferase Assay System, Cat: E6120) was purchased from Promega; multifunction plate reader (SpectraMax i3x) was purchased from Molecular Devices.
PD-1/NFAT—Reporter—Jurkat cells and TCR activator/PD-L1—CHO cells were cultured in recommended media respectively.
Harvest TCR activator/PD-L1-CHO cells from culture and seed cells at a density of 35,000 cells per well into 96-well microplate in 100 µl of growth medium. Incubate cells at 37° C. in a CO2 incubator overnight. Next day, discard the culture media, add diluted compound in assay medium for 30 min. Anti-PD-L1 antibody (Atezolizumab, final concentration 10 nM) and 0.1% DMSO were the positive and negative control, respectively. Harvest the PD-1/NFAT-reporter-Jurkat cells by centrifugation and add to the wells. After 6 hour incubation, perform luciferase assay using the ONE-Glo™ Luciferase Assay System, following the manufacturer's assay protocol.
Anti-PD-L1 antibody (Atezolizumnab, 10 nM) was used as positive control to calibrate the inhibition rate using the following equation: % inhibition=(Sample luminescence/Average vehicle group luminescence−1)/(Average PD-L1 group luminescence/Average vehicle group luminescence−1)×100%.

| SMILES | EC50 (6 h) [nM] | EC50 [nM] |
| --- | --- | --- |
| COc1cc(OCc2cccc(-c3cccc4c3cnn4Cc3cc(OCc4cncc(C#N)c4)c(CN4CCC(C)(C(=O)O)C4)cc3Cl)c2C)c(Cl)cc1CN1CCC(C)(C(=O)O)C1 (stereo not drawn) [Compound 70, 1-(4-((3-(1-(4-((3-carboxy-3-methylpyrrolidin-1-yl)methyl)-2-chloro-5-((5-cyanopyridin-3-yl)methoxy)benzyl)-1H-indazol-4-yl)-2-methylbenzyl)oxy)-5-chloro-2-methoxybenzyl)-3-methylpyrrolidine-3-carboxylic acid] | 5850 | – |
| Cc1c(COc2cc(OCc3cncc(C#N)c3)c(CNCCO)cc2Cl)cccc1-c1cccc2c1cnn2Cc1cc(OCc2cncc(C#N)c2)c(CNCCO)cc1Cl [Compound 71] | 134 | – |
| COc1cc(OCc2cccc(-c3cccc4c3cnn4Cc3cc(OCc4cncc(C#N)c4)c(CN)cc3Cl)c2C)c(Cl)cc1CN [Compound 72] | > 1110 | – |
| COc1cc(OCc2cccc(-c3cccc4c3cnn4Cc3cc(OCc4cncc(C#N)c4)c(CN)cc3Cl)c2C)c(Cl)cc1CN[C@@H](CO)C(=O)O [Compound 73] | 448 | – |
| COc1cc(OCc2cccc(-c3cccc4c3cnn4Cc3cc(OCc4cncc(C#N)c4)c(CN[C@@H](CO)C(=O)O)cc3Cl)c2C)c(Cl)cc1CN [Compound 74] | 2700 | – |
| Cc1c(COc2cc(OCc3cncc(C#N)c3)c(CN)cc2Cl)cccc1-c1cccc2c1cnn2Cc1cc(OCc2cncc(C#N)c2)c(CN)cc1Cl [Compound 75] | 2830 | – |
| COc1nc(-c2cccc(-c3cccc4c3cnn4Cc3cc(OCc4cncc(C#N)c4)c(CN[C@@H](CO)C(=O)O)cc3Cl)c2Cl)ccc1CNC[C@@H]1CCC(=O)N1 [Compound 76] | 34 | – |
| N#Cc1cncc(COc2cc(Cn3ncc4c(-c5cccc(-c6ccc(CNC[C@@H]7CCC(=O)N7)cc6)c5Cl)cccc43)c(Cl)cc2CN[C@@H](CO)C(=O)O)c1 [Compound 77] | 28 | – |
| COc1cc(OCc2cccc(-c3cccc4c3c(C)nn4Cc3cc(OCc4cncc(C#N)c4)c(CN[C@@H](CO)C(=O)O)cc3Cl)c2C)c(Cl)cc1CN[C@@H](CO)C(=O)O [Compound 78] | 1600 | – |
| N#Cc1cncc(COc2cc(OCc3cccc(-c4cccc5c4cnn5CCCCN4CC[C@@H](O)C4)c3Br)c(Cl)cc2CN2CC[C@H](O)C2)c1 [Compound 79] | > 370 | – |
| N#Cc1cncc(COc2cc(OCc3cccc(-c4cccc5c4cnn5CCCCN4CC[C@@H](O)C4)c3Br)c(Cl)cc2CNCCO)c1 [Compound 80] | 318 | – |
| C[C@H](CO)NCc1cc(Cl)c(OCc2cccc(-c3cccc4c3cnn4CCCCN3CC[C@@H](O)C3)c2Br)cc1OCc1cncc(C#N)c1 [Compound 81] | 221 | – |
| N#Cc1cncc(COc2cc(OCc3cccc(-c4cccc5c4cnn5CCCCN4CC[C@@H](O)C4)c3Br)c(Cl)cc2CN2CC[C@@H](O)C2)c1 [Compound 82] | 339 | – |
| N#Cc1cncc(COc2cc(OCc3cccc(-c4cccc5c4cnn5CCCCN4CC[C@@H](O)C4)c3Br)c(Cl)cc2CNC[C@@H]2CCC(=O)N2)c1 [Compound 83] | 232 | – |
| CC1(C(=O)O)CCN(Cc2cc(Cl)c(OCc3cccc(-c4cccc5c4cnn5CCCCN4CC[C@@H](O)C4)c3Br)cc2OCc2cncc(C#N)c2)C1 (stereo partly drawn) [Compound 84] | 1750 | – |
| N#Cc1cncc(COc2cc(OCc3cccc(-c4cccc5c4cnn5CCCCN4CC[C@@H](O)C4)c3Br)c(Cl)cc2CN2CCCC2)c1 [Compound 85] | > 370 | – |
| N#Cc1cncc(COc2cc(OCc3cccc(-c4cccc5c4cnn5CCCCNC[C@@H]4CCC(=O)N4)c3Br)c(Cl)cc2CN[C@@H](CO)C(=O)O)c1 [Compound 86] | 214 | – |
| N#Cc1cncc(COc2cc(OCc3cccc(-c4cccc5c4cnn5CCCNC[C@@H]4CCC(=O)N4)c3Br)c(Cl)cc2CN[C@@H](CO)C(=O)O)c1 [Compound 87, (4-((2-bromo-3-(1-(3-((((S)-5-oxopyrrolidin-2-yl)methyl)amino)propyl)-1H-indazol-4-yl)benzyl)oxy)-5-chloro-2-((5-cyanopyridin-3-yl)methoxy)benzyl)-L-serine] | 98 | – |
| Cc1c(OCCCN2CC[C@@H](O)C2)cccc1-c1ccnc2c1cnn2Cc1cc(OCc2cncc(C#N)c2)c(CN[C@@H](CO)C(=O)O)cc1Cl [Compound 88, (5-chloro-2-((5-cyanopyridin-3-yl)methoxy)-4-((4-(3-(3-((R)-3-hydroxypyrrolidin-1-yl)propoxy)-2-methylphenyl)-1H-pyrazolo[3,4-b]pyridin-1-yl)methyl)benzyl)-L-serine] | 1030 | – |
| Cc1c(OCCCN2CC[C@@H](O)C2)cccc1-c1cncc2c1cnn2Cc1cc(OCc2cncc(C#N)c2)c(CN[C@@H](CO)C(=O)O)cc1Cl [Compound 89, (5-chloro-2-((5-cyanopyridin-3-yl)methoxy)-4-((4-(3-(3-((R)-3-hydroxypyrrolidin-1-yl)propoxy)-2-methylphenyl)-1H-pyrazolo[3,4-c]pyridin-1-yl)methyl)benzyl)-L-serine] | 5450 | – |
| N#Cc1cncc(COc2cc(Cn3ncc4c(-c5cccc(OCc6ccc(CN7CC[C@@H](O)C7)cc6)c5Cl)cccc43)c(Cl)cc2CN[C@@H](CO)C(=O)O)c1 [Compound 90, (5-chloro-4-((4-(2-chloro-3-((4-(((R)-3-hydroxypyrrolidin-1-yl)methyl)benzyl)oxy)phenyl)-1H-indazol-1-yl)methyl)-2-((5-cyanopyridin-3-yl)methoxy)benzyl)-L-serine] | – | 1060 |
| COc1cc(Cn2ccc3c(-c4cccc(-c5ccc(CNC[C@@H]6CCC(=O)N6)cc5)c4Cl)cccc32)c(Cl)cc1CN[C@@H](CO)C(=O)O [Compound 91, (5-chloro-4-((4-(2-chloro-4′-(((((S)-5-oxopyrrolidin-2-yl)methyl)amino)methyl)-[1,1′-biphenyl]-3-yl)-1H-indol-1-yl)methyl)-2-methoxybenzyl)-L-serine] | 518 | – |
| COc1cc(Cn2nnc3c(-c4cccc(-c5ccc(CNC[C@@H]6CCC(=O)N6)cc5)c4Cl)cccc32)c(Cl)cc1CN[C@@H](CO)C(=O)O [Compound 92, (5-chloro-4-((4-(2-chloro-4′-(((((S)-5-oxopyrrolidin-2-yl)methyl)amino)methyl)-[1,1′-biphenyl]-3-yl)-1H-benzo[d][1,2,3]triazol-1-yl)methyl)-2-methoxybenzyl)-L-serine] | 416 | – |
| COc1cc(Cn2cnc3c(-c4cccc(-c5ccc(CNC[C@@H]6CCC(=O)N6)cc5)c4Cl)cccc32)c(Cl)cc1CN[C@@H](CO)C(=O)O [Compound 93, (5-chloro-4-((4-(2-chloro-4′-(((((S)-5-oxopyrrolidin-2-yl)methyl)amino)methyl)-[1,1′-biphenyl]-3-yl)-1H-benzo[d]imidazol-1-yl)methyl)-2-methoxybenzyl)-L-serine] | 2130 | – |
| CN1CCC2(CC1)CCN(Cc1cccc(-c3cccc4c3cnn4Cc3cc(OCc4cncc(C#N)c4)c(CN[C@@H](CO)C(=O)O)cc3Cl)c1Cl)CC2 [Compound 94, (5-chloro-4-((4-(2-chloro-3-((9-methyl-3,9-diazaspiro[5.5]undecan-3-yl)methyl)phenyl)-1H-indazol-1-yl)methyl)-2-((5-cyanopyridin-3-yl)methoxy)benzyl)-L-serine] | > 10000 | – |
| CN1CCC2(CC1)CCN(C(=O)c1cccc(-c3cccc4c3cnn4Cc3cc(OCc4cncc(C#N)c4)c(CN[C@@H](CO)C(=O)O)cc3Cl)c1Cl)CC2 [Compound 95, (5-chloro-4-((4-(2-chloro-3-(9-methyl-3,9-diazaspiro[5.5]undecane-3-carbonyl)phenyl)-1H-indazol-1-yl)methyl)-2-((5-cyanopyridin-3-yl)methoxy)benzyl)-L-serine] | > 10000 | – |
| CN1CCC2(CC1)CCN(c1cccc(-c3cccc4c3cnn4Cc3cc(OCc4cncc(C#N)c4)c(CN[C@@H](CO)C(=O)O)cc3Cl)c1Cl)CC2 [Compound 96, (5-chloro-4-((4-(2-chloro-3-(9-methyl-3,9-diazaspiro[5.5]undecan-3-yl)phenyl)-1H-indazol-1-yl)methyl)-2-((5-cyanopyridin-3-yl)methoxy)benzyl)-L-serine] | – | 2450 |

Source: patent US12091398B2, “PD-L1 antagonist compound” (ADLAI NORTYE BIOPHARMA CO., LTD., priority 2019, dated 2024)
